Reference: patent US20240165226A1, “COMBINATION TREATMENT OF CD38-EXPRESSING TUMORS” (GENMAB A/S, priority 2006, published 2024)

Test system: Daudi-luc tumor cells
Assay: In vivo SCID-luciferase experiments
Set-up: species or system SCID mice
Text: In this model tumor cells are transfected with firefly luciferase. Upon administration of luciferin (Molecular Probes, Leiden, The Netherlands) to the mice the labeled cells can be detected in vivo by bioluminescent imaging using a highly sensitive CCD camera, cf. Wetterwald et al., American Journal of Pathology 160(3), 1143-1153 (2002).
Daudi cells were transfected with gWIZ luciferase from Gene Therapy Systems (San Diego, CA) and cultured in RPMI with 10% FCS, Pen/Strep, Sodium Pyruvate and 1 μg/ml puromycin (Sigma). Cells were analysed for luciferase expression (expressed in RLU/1×10^5 cells) in a luminometer and for CD38 expression by FACS. 2.5×10^6 luciferase-transfected Daudi cells/mouse were injected i.v. into SCID mice. Mice were treated with -003, -005, isotype control antibody (HuMab-KLH) or rituximab (anti-CD20 antibody). Antibodies were injected intraperitoneally. Four treatment settings were used (see Table 4). In the preventive setting, antibody (100 μg/mouse) and cells were administered simultaneously. In therapeutic setting I, antibody (300 μg/mouse) was administered 7 days after administration of cells. In therapeutic setting II, antibody (10 μg/mouse) was administered 14 days after administration of cells. In therapeutic setting III, antibody (100 μg/mouse) was administered 7 days after administration of cells. For imaging, mice were anesthetized by i.p. injection of a mixture of ketamine/xylazine/atropine. Synthetic D-Luciferin (sodium salt, Molecular Probes) was given i.p. at a dose of 25 mg/ml. Mice were then placed in a light tight box and after 3 min, imaging was started using a VersArray 1300B liquid nitrogen cooled CCD detector (Roper Scientific). Photons emitted from the luciferase were counted over an exposure period of 5 min. Under illumination black and white images were made for reference. MetaVue software (Universal Imaging Corp) was used for data collection and image analysis. Statistical significance of differences between groups was established using one-way analysis of variance with a Newman-Keuls post test using GraphPad PRISM version 3.02 (Graphpad Software Inc).

## rituximab [anti-CD20 antibody, reference compound]
Preventive setting, 100 μg/mouse, day 0, i.p.
  inhibition of growth of tumor cells: inhibition observed
Therapeutic setting I, 300 μg/mouse, day 7, i.p.
  inhibition of growth of tumor cells: inhibition observed
